From patent publication US20220033406A1, “C[…] AS ANTI-VIRALS” (priority 2018, published 2022)

Columns and labels:
[1] = target: T1, Recombinant full-length HIV-1 Reverse Transcriptase (HIVrt) (Human immunodeficiency virus type 1 group M subtype B, UniProt P04585); assay: Inhibition of HIV reverse transcriptase (RdDp assay); assay type: biochemical; conditions: 1 nM HIVrt, 30° C., 40 min, 3H-TTP incorporation; Table 3 triphosphates
T1 construct: Recombinant full-length HIV-1 Reverse Transcriptase (HIVrt); purchased Abcam ab63979
Method: Recombinant full-length HIV-1 Reverse Transcriptase (HIVrt) was purchased from Abcam, catalog #ab63979. The last 385 nucleotide region of the HCV anti-genome complementary to the 5′ untranslated region (c5′UTR) was synthesized using T7 RNA polymerase Megascript kit from Ambion (Cat #AM1333). A DNA oligo served as an internal initiation primer and was purchased from IDT. Unless otherwise specified, reaction samples consisted of 20 nM c5′UTR RNA, 100 nM DNA primer, and 1 nM HIVrt, mixed together in a buffer containing 50 mM Tris pH 7.5, 100 mM KCl, 4 mM dithiothreitol (DTT), and 12.5 mM MgCl2. Reactions were initiated at 30° C. by adding 0.1 μM adenosine triphosphate (dATP), 0.1 μM cytosine triphosphate (dCTP), 1 μM guanosine triphosphate (dGTP), and 0.32 μM ^3H-thymidine triphosphate (^3H-TTP), in a final volume of 50 μL. After 40-mins incubation, the reaction was terminated by adding 60 μL of chilled 20% (w/v) trichloroacetic acid with 500 μM ATP to precipitate nucleic acids. After incubation at 4° C. for 1 h, the sample underwent filtration on a multiscreen BV […] 96-well plate (Millipore). 40 μL Microscint-20 (Perkin Elmer) was added to the well and the counts in the sample were determined by a Trilux Microbeta microplate scintillation reader (Wallac).
All data were analyzed with GraphPad Prism. The compound concentration at which the enzyme-catalyzed rate was reduced by 50% (IC50) was calculated by fitting the data to the equation Y=% Min+(% Max−% Min)/(1+X/IC50), where Y corresponds to the percent relative enzyme activity, % Min is the residual relative activity at saturating compound concentration, % Max is the relative maximum enzyme activity, and X corresponds to the compound concentration. The Ki was calculated using the Cheng-Prusoff equation assuming competitive inhibition relative to natural dNTP incorporation: K=IC50/(1+[dNTP]/Km), where [dNTP] is the concentration of natural dNTP and Km is the apparent Km for dNTP. The standard HIVrt RNA-dependent DNA polymerization (RdDp) assay was used to determine the IC50 values.

[2] = target: T2, Recombinant full-length HBV polymerase (HBVpol) (Hepatitis B virus genotype D subtype ayw, UniProt P03156); assay: Inhibition of HBV polymerase (RdDp assay); assay type: biochemical; conditions: HBVpol expressed in SF9 cells, 30° C., 120 min, 3H-TTP incorporation; Table 3 triphosphates; read-out: HBVrt IC50
T2 construct: Recombinant full-length HBV polymerase(HBVpol) was expressed in SF9 cells; made in house; host or cells: SF9 insect cells
T2 sequence (P03156 whole entry): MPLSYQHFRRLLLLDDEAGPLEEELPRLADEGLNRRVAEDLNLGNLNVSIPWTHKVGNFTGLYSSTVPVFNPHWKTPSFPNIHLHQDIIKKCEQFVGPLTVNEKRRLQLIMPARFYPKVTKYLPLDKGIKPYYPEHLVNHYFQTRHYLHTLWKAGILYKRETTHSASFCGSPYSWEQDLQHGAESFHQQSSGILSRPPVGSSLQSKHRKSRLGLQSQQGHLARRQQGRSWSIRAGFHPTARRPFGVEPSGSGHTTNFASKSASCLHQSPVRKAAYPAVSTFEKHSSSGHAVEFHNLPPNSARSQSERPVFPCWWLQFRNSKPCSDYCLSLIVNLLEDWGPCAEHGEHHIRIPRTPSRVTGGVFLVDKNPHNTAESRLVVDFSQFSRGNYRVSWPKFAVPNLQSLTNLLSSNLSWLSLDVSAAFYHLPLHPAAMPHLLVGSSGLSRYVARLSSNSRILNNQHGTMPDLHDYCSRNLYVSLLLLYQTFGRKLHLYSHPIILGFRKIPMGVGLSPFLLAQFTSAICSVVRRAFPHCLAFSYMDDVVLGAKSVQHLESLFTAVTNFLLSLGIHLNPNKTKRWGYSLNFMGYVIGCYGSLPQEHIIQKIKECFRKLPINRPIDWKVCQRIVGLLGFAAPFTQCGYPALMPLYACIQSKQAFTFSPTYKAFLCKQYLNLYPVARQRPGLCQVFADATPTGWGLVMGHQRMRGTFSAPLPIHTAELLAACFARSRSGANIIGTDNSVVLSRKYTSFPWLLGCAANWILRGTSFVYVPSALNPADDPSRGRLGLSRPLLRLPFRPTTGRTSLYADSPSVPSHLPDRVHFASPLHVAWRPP

| SMILES | IC50 [1] | IC50 [2] |
| --- | --- | --- |
| C=C1[C@H](COP(=O)(O)OP(=O)(O)OP(=O)(O)O)[C@@H](O)C[C@@H]1n1ccc2c(N)ncnc21 [Example 22, ((1R,3S,5S)-3-(4-Amino-7H-pyrrolo[2,3-d]pyrimidin-7-yl)-5-hydroxy-2-methylenecyclopentyl)methyl Tetrahydrogen Triphosphate] | 0.158 µM | – |
| C=C1[C@H](COP(=O)(O)OP(=O)(O)OP(=O)(O)O)[C@@H](O)C[C@@H]1n1ccc2c(=O)[nH]c(N)nc21 [Example 23, ((1R,3S,5S)-3-(2-Amino-4-oxo-3,4-dihydro-7H-pyrrolo[2,3-d]pyrimidin-7-yl)-5-hydroxy-2-methylenecyclopentyl)methyl Tetrahydrogen Triphosphate] | 0.383 µM | 0.0088 µM |
| C=C1[C@@H](n2cc(C)c(=O)[nH]c2=O)C[C@H](O)[C@@]1(F)COP(=O)(O)OP(=O)(O)OP(=O)(O)O [Example 24, ((1S,3S,5S)-1-Fluoro-5-hydroxy-3-(5-methyl-2,4-dioxo-3,4-dihydropyrimidin-1(2H)-yl)-2-methylenecyclopentyl)methyl Tetrahydrogen Triphosphate] | 0.267 µM | 0.0029 µM |
| C=C1[C@@H](n2cnc3c(=O)[nH]c(N)nc32)C[C@H](O)[C@@]1(F)COP(=O)(O)OP(=O)(O)OP(=O)(O)O [Example 25, ((1S,3S,5S)-3-(2-Amino-6-oxo-1,6-dihydro-9H-purin-9-yl)-1-fluoro-5-hydroxy-2-methylenecyclopentyl)methyl Tetrahydrogen Triphosphate] | 0.251 µM | 0.0099 µM |
| C=C1[C@@H](n2cnc3c(N)ncnc32)C[C@H](O)[C@@]1(F)COP(=O)(O)OP(=O)(O)OP(=O)(O)O [Example 26, ((1S,3S,5S)-3-(6-Amino-9H-purin-9-yl)-1-fluoro-5-hydroxy-2-methylenecyclopentyl)methyl Tetrahydrogen Triphosphate] | 0.081 µM | 0.0082 µM |
| C=C1[C@@H](n2ccc3c(N)ncnc32)C[C@H](O)[C@@]1(F)COP(=O)(O)OP(=O)(O)OP(=O)(O)O [Example 27, ((1S,3S,5S)-3-(4-Amino-7H-pyrrolo[2,3-d]pyrimidin-7-yl)-1-fluoro-5-hydroxy-2-methylenecyclopentyl)methyl Tetrahydrogen Triphosphate] | 0.0659 µM | 0.0072 µM |
| C=C1[C@@H](n2cnc3c(=O)[nH]c(N)nc32)C[C@H](O)[C@@]1(CF)COP(=O)(O)OP(=O)(O)OP(=O)(O)O [Example 28, ((1S,3S,5S)-3-(2-Amino-6-oxo-1,6-dihydro-9H-purin-9-yl)-1-(fluoromethyl)-5-hydroxy-2-methylenecyclopentyl)methyl Tetrahydrogen Triphosphate] | 0.749 µM | – |
| C=C1[C@@H](n2ccc(N)nc2=O)C[C@H](O)[C@@]1(CF)COP(=O)(O)OP(=O)(O)OP(=O)(O)O [Example 29, ((1S,3S,5S)-3-(4-Amino-2-oxopyrimidin-1(2H)-yl)-1-(fluoromethyl)-5-hydroxy-2-methylenecyclopentyl)methyl Tetrahydrogen Triphosphate] | 0.326 µM | 0.38 µM |
| C=C1[C@@H](n2cc(C)c(=O)[nH]c2=O)C[C@H](O)[C@@]1(CF)COP(=O)(O)OP(=O)(O)OP(=O)(O)O [Example 30, ((1S,3S,5S)-1-(Fluoromethyl)-5-hydroxy-3-(5-methyl-2,4-dioxo-3,4-dihydropyrimidin-1(2H)-yl)-2-methylenecyclopentyl)methyl Tetrahydrogen Triphosphate] | 1.33 µM | – |
| C=C1[C@@H](n2cnc3c(N)ncnc32)C[C@H](O)[C@@]1(CCl)COP(=O)(O)OP(=O)(O)OP(=O)(O)O [Example 31, ((1S,3S,5S)-3-(6-Amino-9H-purin-9-yl)-1-(chloromethyl)-5-hydroxy-2-methylenecyclopentyl)methyl Tetrahydrogen Triphosphate] | 0.363 µM | – |
| C=C1[C@@H](n2cc(C)c(=O)[nH]c2=O)C[C@H](O)[C@@]1(C#N)COP(=O)(O)OP(=O)(O)OP(=O)(O)O [Example 32, ((1S,3S,5S)-1-Cyano-5-hydroxy-3-(5-methyl-2,4-dioxo-3,4-dihydropyrimidin-1(2H)-yl)-2-methylenecyclopentyl)methyl Tetrahydrogen Triphosphate] | 0.476 µM | > 1 µM |
| C=C1[C@@H](n2ccc(N)nc2=O)C[C@H](O)[C@@]1(C#N)COP(=O)(O)OP(=O)(O)OP(=O)(O)O [Example 33, ((1S,3S,5S)-3-(4-Amino-2-oxopyrimidin-1(2H)-yl)-1-cyano-5-hydroxy-2-methylenecyclopentyl)methyl Tetrahydrogen Triphosphate] | 0.0779 µM | 0.22 µM |
| C=C1[C@@H](n2cnc3c(N)ncnc32)C[C@H](O)[C@@]1(C#N)COP(=O)(O)OP(=O)(O)OP(=O)(O)O [Example 34, ((1S,3S,5S)-3-(6-Amino-9H-purin-9-yl)-1-cyano-5-hydroxy-2-methylenecyclopentyl)methyl Tetrahydrogen Triphosphate] | > 10 µM | – |
| C=C1[C@@H](n2cnc3c(=O)[nH]c(N)nc32)C[C@H](O)[C@@]1(C#N)COP(=O)(O)OP(=O)(O)OP(=O)(O)O [Example 35, ((1S,3S,5S)-3-(2-Amino-6-oxo-1,6-dihydro-9H-purin-9-yl)-1-cyano-5-hydroxy-2-methylenecyclopentyl)methyl Tetrahydrogen Triphosphate] | 0.26 µM | – |
| C#C[C@]1(COP(=O)(O)OP(=O)(O)OP(=O)(O)O)C(=C)[C@@H](n2cnc3c(N)ncnc32)C[C@@H]1O [Example 36] | 0.0331 µM | – |
| C=C[C@]1(COP(=O)(O)OP(=O)(O)OP(=O)(O)O)C(=C)[C@@H](n2cnc3c(N)ncnc32)C[C@@H]1O [Example 37, ((1R,3S,5S)-3-(6-Amino-9H-purin-9-yl)-5-hydroxy-2-methylene-1-vinylcyclopentyl)methyl Tetrahydrogen Triphosphate] | > 10 µM | – |
